Source: patent publication US20040014721A1, “Method for using tethered bis(polyhydroxyphenyls) and O-alkyl derivatives thereof in treating inflammatory conditions of the central nervous system” (Oklahoma Medical Research Foundation, priority 2002, published 2004)

Key:
[1] = test system: prostaglandin E2 (PGE2) release in TNFα-stimulated EOC-20 cells; test: PGE2 release in TNFα-stimulated EOC-20 cells; format: cell-based, mouse; conditions: submicromolar concentrations
Source text: Prostaglandin E2, a product of the cyclooxygenation of arachidonic acid released from membrane phospholipids, plays major roles in regulating brain injury and inflammation. Although prostaglandin E2 has frequently been considered as a possible inducer of brain damage and degeneration, it may exert beneficial effects in the CNS. Indeed, in spite of its classic role as a pro-inflammatory molecule, several recent in vitro observations indicate that prostaglandin E2 can inhibit microglial activation.

EOC-20 cells = test system: EOC-20 cells
Method: (§1) Lower IC50 values indicate improved efficacy. FIG. 2 illustrates the principle of the measurement using NDGA as an example test agent. In order to determine viability, cell culture medium was replaced with phenol-free DMEM (Gibco) containing 20 μL/mL of MTT viability reagent (Promega). […] Control cells were taken to indicate 100% viability and intermediate values of MTT reduction were scaled to percentage of control. For each compound, an LD50 value was determined by extrapolation through sublethal concentrations. This value represents the concentration that reduced the MTT viability parameter by 50%.

mice = conditions: cited from earlier work
[2] = test system: TNFα-Stimulated NO2^− Production in EOC-20 Cells; test: TNFα-stimulated nitrite (NO2−) production in EOC-20 microglial cells, Griess assay; format: cell-based, mouse
Method: Cells were cultured in 24 well plates until confluent then treated with test agent, which was dissolved at 100× final concentration in dimethylsulfoxide (DMSO), or with vehicle only. Thirty minutes after treatment with test agent, cells were treated with 10 ng/mL recombinant mouse TNFα (Pharmingen, San Diego, Calif. USA). […] Each compound was tested at 100 μM, 20 μM, 4 μM, 0.8 μM and 0 μM in the presence of TNFα. Four wells of cells were used for each concentration of test agent.
as §1

C57/B6 mice = test: 3-nitropropionic acid (3NP) striatal damage model, rotarod and balance beam; format: in vivo; conditions: 2500 ppm in diet for one month, then 3NP 50 mg/kg i.p. every 12 h for 5 days
Method: Mice were then injected with 50 mg/kg 3NP intraperitoneally, every 12 h for 5 days. Motor performance was assessed daily by a rotarod task and balance was assessed by a balance wire task. In the rotarod task (Hensley et al. 2002), animals were placed on a bar rotating at 1 rpm and accelerating 10 rpm/minute until the animal fell from the bar. In the balance beam test, mice were placed on a 2-cm balance beam by suspending them by the tail, orienting them perpendicular to the beam, and placing the forepaws followed by hindpaws on the balance beam. Mice were left on the beam until they fell onto a soft cushion 75 cm below or until 5 min elapsed. The longest time of each pair of trials was used for statistical analysis.

LnCAP Production of PSA = test: LnCAP production of PSA (ELISA); format: cell-based; conditions: Homo sapiens, LNCaP, 24 h
Method: LnCAP prostate cancer cells were be cultured according to established methods (Horoszewicz et al., 1983). These cells product prostate-specific antigen (PSA), a serine protease that predicts metastatic potential ([…] et al., 2000). […] Each drug was tested in triplicate at each concentration. Medium was removed and tested for PSA concentration using a commercially available enzyme-linked immunosorbent assay (ELISA). Viability was determined in the adherent cells using the MTT assay.

SMILES: C[C@H](Cc1ccc(O)c(O)c1)[C@@H](C)Cc1ccc(O)c(O)c1 [NDGA, 1,4-bis (3,4-Dihydroxyphenyl)-2,3-dimethylbutane]
- inhibition of prostaglandin E2 (PGE2) release [1]: effective at submicromolar concentrations
- inhibition of prostaglandin E2 (PGE2) release ([1]; listed as NGDA): effectively inhibits prostaglandin E2 (PGE2)
- toxicity at 100 μM (EOC-20 cells): no toxicity
- effects of long-term feeding (mice; 0.5% of the diet, long-term, mice): no ill effects
- LD50 (mice; mouse, in vivo, ip): greater than 500 mg/kg
- NO2− suppression at 800 nM ([2]; 800 nM): Significant NO2^− suppression
- IC50 ([2]; Mus musculus, read-out: IC50): 3 to 5 µM
- potency relative to minocycline ([2]; fold more potent than minocycline): approximately 16 times
- balance test (C57/B6 mice): significantly improved functional ability
- rotarod test (C57/B6 mice): significantly improved functional ability
- IC50 (LnCAP Production of PSA): 15 µM
